From patent US11180529B2, “Alpha-v beta-6 integrin ligands and uses thereof” (Arrowhead Pharmaceuticals, Inc., priority 2016, dated 2021)
Non-standard residues stand in square brackets, D forms with d. No end group written: not given here. Cit = NC(=O)NCCC[C@H](N)C(=O)O; R(Me)2 = dimethyl-arginine; Abu = CC[C@H](N)C(=O)O; Aib = CC(C)(N)C(=O)O

Key:
[1] = system: H2009 (human lung epithelial adenocarcinoma) cells, αvβ6 integrin expressing; assay: αvβ6 ligand binding, flow cytometry of Cy5-labeled ligand-polymer conjugates, H2009 αvβ6 positive cells; assay type: cell-based; details: Cy5-polymer conjugate 5 μg/ml, 37° C., 3 h, specific MFI ratio = sample MFI/no-ligand MFI
Description: (§1) Each αvβ6 ligand was attached to a reversibly modified 1170-100B polymer cargo molecule. The 1170-100B polymer cargo molecule (a 56:44 ethoxyethylamine acrylate:propyl acrylate copolymer having a MW of about 45000) was labeled with Cy5 (NHS linker) and combined with aldehyde-PEG24-ACit at a weight ratio of 2:1 (polymer:aldehyde-PEG24-ACit) in 50 mM HEPES pH 9.0 buffer for 1 h at RT to form (aldehyde-PEG24-ACit)n-1170-100B wherein n is an integer greater than 0. Typically, n was about 10.
(§2) The aldehyde-PEG24-ACit-modified polymer was then reacted with PEG12-ACit at a weight ratio of 1:8 (polymer:PEG12-ACit) in 50 mM HEPES, pH 9.0 buffer for 1 h at RT to form (aldehyde-PEG24-ACit)n-1170-100B-(CitA-PEG12)m, wherein m is an integer greater than 0.
(§3) The modified polymer was then purified using a sephadex G-50 spin column and concentration determined:
(§4) Each αvβ6 ligand was modified with HyNic to facilitate conjugation to the cargo molecule. Purified polymer was combined with αvβ6 ligand-(PEG)8-K-HyNic at a weight ratio of 1:1.9 (polymer: αvβ6 ligand) in 50 mM NaOAC-HOAc, pH 5.0 buffer at RT overnight to form the αvβ6 ligand-polymer conjugate. The αvβ6 ligand-polymer conjugate was purified using a sephadex G-50 spin column.
Conjugation efficiency was quantified by measuring Absorbance of the αvβ6-polymer conjugate at 354 nm using an extinction coefficient of […] M^−1 cm^−1 for bis-aryl hydrazone bond.
αvβ6-polymer conjugates were diluted with isotonic glucose solution to desired concentrations for further analysis.
To assess for specificity of binding of the αvβ6 ligands to the αvβ6 integrin, each αvβ6 ligand or negative control peptide was conjugated to a Cy5-labeled polymer (as described above) and evaluated for binding to cells. […] H2009 (human lung epithelial adenocarcinoma) and CAPAN-2 (human pancreas adenocarcinoma) cells served as the αvβ6 positive-control cell lines. Cells were detached from culturing flasks with Accutase, washed in PBS, and seeded into 5 ml polystyrene round-bottom tubes at 200,000 cells in 200 μl complete media (culturing media with supplements and fetal calf serum). αvβ6 ligand-polymer conjugates or no-ligand-polymer conjugates were added at 5 μg/ml (polymer-Cy5 concentration) to cells, mixed and incubated at 37° C. for 3 h. Incubation at 37° C. facilitated ligand/receptor interaction which may result in static binding to the extracellular cell surface and/or internalized ligand/receptor complexes. The mixture was re-suspended at 1 h intervals. Following a 3 h incubation, cells were washed 2× with 4 ml chilled buffer (PBS-2% FCS) and re-suspended in 200 μl buffer containing 10 μM SYTOX blue stain for live/dead cell gating. Samples were analyzed on a BD Biosciences Canto II cytometer equipped with a violet (405 nm), blue (488 nm) and red (633 nm) lasers. Viable cells were initially gated as the SYTOX blue negative population on the C detector with the violet laser. These viable cells were then assessed for conjugate binding/uptake with the red laser as the Mean Fluorescence Intensity (MFI) of the Cy5 fluorophore. Data analyses were performed with FlowJo v10.1 software. A specific MFI Ratio (sMFIr) for each αvβ6 ligand was determined by the formula: specific sample MFI value/no-ligand MFI value.

[2] = system: SKOV3 (human ovarian carcinoma) cells, very low αvβ6 cell surface expression; assay: αvβ6 ligand binding, flow cytometry of Cy5-labeled ligand-polymer conjugates, SKOV3 negative-control cells; assay type: cell-based; details: Cy5-polymer conjugate 5 μg/ml, 37° C., 3 h; specific MFI ratio = sample MFI/no-ligand MFI
Description: as §1, §2, §3, §4
Conjugation efficiency was quantified by measuring Absorbance of the αvβ6-polymer conjugate at 354 nm using an extinction coefficient of […] M^−1 cm^−1 for bis-aryl hydrazone bond. […]
To assess for specificity of binding of the αvβ6 ligands to the αvβ6 integrin, each αvβ6 ligand or negative control peptide was conjugated to a Cy5-labeled polymer (as described above) and evaluated for binding to cells. […] Samples were analyzed on a BD Biosciences Canto II cytometer equipped with a violet (405 nm), blue (488 nm) and red (633 nm) lasers. […] These viable cells were then assessed for conjugate binding/uptake with the red laser as the Mean Fluorescence Intensity (MFI) of the Cy5 fluorophore. […] A specific MFI Ratio (sMFIr) for each αvβ6 ligand was determined by the formula: specific sample MFI value/no-ligand MFI value.

## CH3(CH2)4-RGDLAAbuLCitAib ({CH3(CH2)4}-RGDLA[Abu]L[Cit][Aib])
[1]
  MFI H2009: 4.1

## CH3CH2-RGDLAAbuLCitAib (CH3CH2-RGDLA[Abu]L[Cit][Aib])
[1]
  MFI H2009: 4.4

## Ac-R(Me)2GDLATLRQL (Ac-[R(Me)2]GDLATLRQL) [negative control peptide]
[1]
  MFI H2009: 1
[1]; listed as AcR(Me)2GDLATLRQL
  MFI H2009: did not show significant binding
[2]
  MFI SKOV3: 0.9

## meta-guanidino-benzoic-GDLATLRQL ({meta‑guanidino‑benzoic}-GDLATLRQL)
[1]
  MFI H2009: 4.5

## CH3(CH2)3-RGDLAAbuLCitAib ({CH3(CH2)3}-RGDLA[Abu]L[Cit][Aib])
[1]
  MFI H2009: 4.7

## CH3(CH2)2-RGDLAAbuLCitAib ({CH3(CH2)2}-RGDLA[Abu]L[Cit][Aib])
[1]
  MFI H2009: 3.9

## des-amino-RGDLATLRQL ({des‑amino}-RGDLATLRQL; not fully specified (residue 1); printed as des-amino-RGDLATLRQL)
[1]
  MFI H2009: 1.1
[2]
  MFI SKOV3: 0.8

## Dap(guanidino)-GDLATLRQL ({Dap(guanidino)}-GDLATLRQL)
[1]
  MFI H2009: 3.4
[2]
  MFI SKOV3: 1.4
